Assay results as given in patent US9790169B2, “IDO inhibitors” (BRISTOL-MYERS SQUIBB COMPANY, priority 2015, dated 2017).

Target: human IDO1 (Homo sapiens, UniProt P14902)
Assay: Assessment of human IDO-1 inhibitory activity in Hela cells (Interferon-gamma stimulated HeLa cells, Ehrlich reagent, absorbance 490 nm)
Format: cell-based
Parameters: endogenous in cells; host or cells: HeLa cells stimulated with interferon-gamma
Conditions: Hela Human IDO-1 cellular assay
Description: Exemplary compounds were tested for inhibition of IDO activity.
Assessment of Human IDO-1 Inhibitory Activity in Hela Cells
HeLa cells were seeded at 20,000 cells per 30 μL per well with RPMI/phenol red free media containing 10% FBS in a 384-well tissue culture plate (black with clear bottoms). 50 nL of compound was added to cells and incubated at 37° C. for one hour. 20 μL of the recombinant human Interferon-gamma (R&D System, Cat. #285-IF, at final concentration of 10 ng/ml) or recombinant murine Interferon-gamma (PEPROTECH® Inc., Cat. #315-05, final concentration of 5 ng/ml) was added to activate IDO signaling. The cells were incubated for 18 hours in 37° C. incubator with 5% CO2.
Compound treatment was stopped by adding 5 μl trichloroacetic acid to a final concentration of 3%. Subsequently, the cell plate was further incubated at 50° C. for 30 minute. An equal volume supernatant (20 μL) and 2% (w/v) Ehrlich reagent (4-dimethylaminobenzaldehyde) in glacial acetic acid were mixed in a new clear bottom 384-well plate. This plate was incubated at room temperature for 30 minutes. Absorbance at 490 nm was measured on Envision plate reader.
Compound IC50 values were calculated using counts from unstimulated (no INF-gamma treatment) wells as 100% inhibition. INF-gamma treatment without compound treatment as 0% inhibition.

human IDO1, sequence (P14902 whole entry): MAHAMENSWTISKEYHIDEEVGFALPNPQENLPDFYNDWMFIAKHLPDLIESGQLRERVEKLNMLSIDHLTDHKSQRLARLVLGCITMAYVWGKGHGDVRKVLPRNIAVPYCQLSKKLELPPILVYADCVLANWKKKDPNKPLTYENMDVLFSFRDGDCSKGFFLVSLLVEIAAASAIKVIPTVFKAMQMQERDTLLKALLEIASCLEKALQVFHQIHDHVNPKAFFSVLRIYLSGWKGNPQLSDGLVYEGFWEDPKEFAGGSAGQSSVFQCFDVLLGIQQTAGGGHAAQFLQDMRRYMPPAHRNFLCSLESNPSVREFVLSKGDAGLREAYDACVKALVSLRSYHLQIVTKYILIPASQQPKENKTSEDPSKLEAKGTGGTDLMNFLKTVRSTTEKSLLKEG

## CCOc1ncc(Nc2cc(C3(CC(=O)O)CCOCC3)ccc2N(CC)C2CCOCC2)cn1 [Example 153, 2-(4-(3-((2-Ethoxypyrimidin-5-yl)amino)-4-(ethyl(tetrahydro-2H-pyran-4-yl)amino)phenyl)tetrahydro-2H-pyran-4-yl)acetic acid]
  IC50: > 50 nM

## COCC(CC(=O)O)c1ccc(N2C[C@@H]3C[C@H]2CN3C(=O)OC(C)(C)C)c(Nc2ccc(C#N)cc2)c1 (single isomer, unassigned) [Example 451 Diastereomer 1]
  IC50: < 50 nM

## CCOc1ncc(Nc2cc(C(COC)CC(=O)O)ccc2N(C)C2CCOCC2)cn1 (single isomer, unassigned) [Example 878, 3-(3-((2-ethoxypyrimidin-5-yl)amino)-4-(methyl (tetrahydro-2H-pyran-4-yl)amino)phenyl)-4-methoxybutanoic acid]
  IC50: > 50 nM

## CCCN(c1ccc([C@H](CC)CC(=O)O)cc1Nc1cnc(OC)nc1)C1CCOCC1 (single isomer, unassigned) [Example 551]
  IC50: < 5 nM

## CCOc1ccc(Nc2cc([C@@H](CC)CC(=O)O)ccc2N(CC)C2CCOCC2)nn1 (single isomer, unassigned) [Example 467]
  IC50: < 50 nM

## CCOc1ncc(Nc2cc(C(COC)CC(=O)O)ccc2N(CC)C2CCS(=O)(=O)CC2)cn1 (single isomer, unassigned) [Example 171, 3-(4-((1,1-dioxidotetrahydro-2H-thiopyran-4-yl)(ethyl)amino)-3-((2-ethoxypyrimidin-5-yl)amino)phenyl)-4-methoxybutanoic acid]
  IC50: > 50 nM

## CCC(CC(=O)O)c1ccc(N2CC(O)(c3ccc(F)cc3)C2)c(Nc2ccc(Cl)cc2)c1 (single isomer, unassigned) [Example 1253 E1, 3-(3-((4-Chlorophenyl)amino)-4-(3-(4-fluorophenyl)-3-hydroxyazetidin-1-yl)phenyl)pentanoic acid]
  IC50: < 50 nM

## CCN(c1ccc(C(CC)(CC)CC(=O)O)cc1NC(=O)Nc1ccc(Cl)cc1F)C1CCOCC1 [Example 32, 3-(3-(3-(4-chloro-2-fluorophenyl)ureido)-4-(ethyl(tetrahydro-2H-pyran-4-yl)amino)phenyl)-3-ethylpentanoic acid]
  IC50: < 5 nM

## CC(CC(=O)O)c1ccc(N(CC(C)(C)O)C2CCCCC2)c(Nc2ccc3c(c2)OC(F)(F)O3)c1 (single isomer, unassigned) [Example 49, 3-(4-(cyclohexyl(2-hydroxy-2-methylpropyl)amino)-3-((2,2-difluorobenzo[d][1,3]dioxol-5-yl)amino)phenyl)butanoic acid]
  IC50: < 50 nM

## CCC(CC(=O)O)c1ccc(N(CCOC)C2CCOCC2)c(Nc2ccc(C#N)cc2)c1 (single isomer, unassigned) [Example 1258, 3-(3-((4-cyanophenyl)amino)-4-((2-methoxyethyl)(tetrahydro-2H-pyran-4-yl)amino)phenyl)pentanoic acid]
  IC50: < 5 nM

## CCC1COCCN1c1ccc([C@H](COC)CC(=O)O)cc1Nc1ccc(C#N)cc1 (single isomer, unassigned) [Example 1303]
  IC50: < 50 nM

## CCCN(c1ccc([C@@H](COC)CC(=O)O)cc1Nc1ccc(C#N)cc1)C1CCOCC1 (single isomer, unassigned) [Example 558]
  IC50: < 5 nM

## CC[C@H](CC(=O)O)c1ccc(N(CC)C2CCOCC2)c(Nc2cnc(N(C)C)nc2)c1 (single isomer, unassigned) [Example 502]
  IC50: < 50 nM

## CCOc1ncc(Nc2cc(C(CC)CC(=O)O)ccc2N2C[C@@H]3C[C@H]2CN3C(=O)OC(C)(C)C)cn1 (single isomer, unassigned) [Example 448]
  IC50: > 50 nM

## CCC(CC(=O)O)c1ccc(N2CCC(C)CC2)c(Nc2ccc(C#N)cc2)c1 (single isomer, unassigned) [Example 41 Enantiomer 1, 3-(3-((4-Cyanophenyl)amino)-4-(4-methylpiperidin-1-yl)phenyl)pentanoic acid]
  IC50: < 50 nM

## CCN(c1ccc([C@@H](COC)CC(=O)O)cc1Nc1cc(C)c(C#N)cn1)C1CCOCC1 (single isomer, unassigned) [Example 384]
  IC50: > 50 nM

## CCOc1ncc(Nc2cc([C@H](CC)CC(O)C(F)(F)F)ccc2N(CC)C2CCOCC2)cn1 (single isomer, unassigned) [Example 1336 D1]
  IC50: < 50 nM

## CCCN(c1ccc(C(C)(C)CC(=O)O)cc1Nc1cnc(OCC)nc1)C1CCS(=O)(=O)CC1 [Example 188, 3-(4-((1,1-dioxidotetrahydro-2H-thiopyran-4-yl)(propyl)amino)-3-((2-ethoxypyrimidin-5-yl)amino)phenyl)-3-methylbutanoic acid]
  IC50: > 50 nM

## CCN(c1ccc([C@@H](COC)CC(=O)O)cc1Nc1ccc(C#N)cn1)C1CCOCC1 (single isomer, unassigned) [Example 352]
  IC50: < 50 nM

## COCCN(c1ccc(C(COC)CC(=O)O)cc1Nc1ccc(C#N)cc1)C1CCOCC1 (single isomer, unassigned) [Example 257, 3-(3-((4-cyanophenyl)amino)-4-((2-methoxyethyl)(tetrahydro-2H-pyran-4-yl)amino)phenyl)-4-methoxybutanoic acid]
  IC50: < 50 nM

## CCN(c1ccc(C2(CC(=O)O)CCOCC2)cc1Nc1ccc(C#N)cc1)C1CCOCC1 [Example 154, 2-(4-(3-((4-cyanophenyl)amino)-4-(ethyl (tetrahydro-2H-pyran-4-yl)amino)phenyl)tetrahydro-2H-pyran-4-yl)acetic acid]
  IC50: < 50 nM

## CCOc1ncc(Nc2cc(C(COC)CC(=O)O)ccc2N2CCC(c3ccccc3)CC2)cn1 (single isomer, unassigned) [Example 1351, 3-(3-((2-ethoxypyrimidin-5-yl)amino)-4-(4-phenylpiperidin-1-yl)phenyl)-4-methoxybutanoic acid]
  IC50: < 50 nM

## CCC(CC(=O)O)c1cc(Nc2ccc(C#N)cn2)c(N(CC)C2CCOCC2)cc1F (single isomer, unassigned) [Example 862, 3-(5-((5-cyanopyridin-2-yl)amino)-4-(ethyl (tetrahydro-2H-pyran-4-yl)amino)-2-fluorophenyl) pentanoic acid]
  IC50: < 5 nM

## CCN(c1ccc(C(CC)(CC)CC(=O)O)cc1NC(=O)Nc1ccc(C)cc1)C1CCOCC1 [Example 30, 3-Ethyl-3-(4-(ethyl(tetrahydro-2H-pyran-4-yl)amino)-3-(3-(p-tolyl)ureido)phenyl)pentanoic acid]
  IC50: < 50 nM

## COCC(CC(=O)O)c1ccc(N(C)C2CCOCC2)c(Nc2ccc(C#N)cc2F)c1 (single isomer, unassigned) [Example 876, 3-(3-((4-cyano-2-fluorophenyl)amino)-4-(methyl(tetrahydro-2H-pyran-4-yl)amino)phenyl)-4-methoxybutanoic acid]
  IC50: < 50 nM

## CCC1COCCN1c1ccc([C@H](COC)CC(=O)O)cc1Nc1cnc(OC)nc1 (single isomer, unassigned) [Example 1290]
  IC50: > 50 nM

## CC[C@@H](CC(=O)O)c1ccc(N(CC)C2CCOCC2)c(Nc2ccc(N(C)C)nc2)c1 (single isomer, unassigned) [Example 463]
  IC50: > 50 nM

## CCOc1ncc(Nc2cc([C@H](CC)Cc3nnn[nH]3)ccc2N(CC)C2CCOCC2)cn1 [Example 1339, (R)-4-(1-(1H-Tetrazol-5-yl)butan-2-yl)-N2-(2-ethoxypyrimidin-5-yl)-N1-ethyl-N1-(tetrahydro-2H-pyran-4-yl)benzene-1,2-diamine]
  IC50: < 5 nM
